Results published in patent US9732077B2, “Diazepane orexin receptor antagonists” (MERCK SHARP & DOHME CORP., priority 2013, dated 2017).

Tests used:
[1] = biological target: T1, rat orexin-1 receptor (Rattus norvegicus, UniProt P56718); assay: OX1R FLIPR Ca flux assay (CHO cells); type: cell-based; details: CHO cells expressing rat orexin-1 receptor; agonist 70 pM Ala-6,12 orexin-A
T1 construct: expressed in transfected cells; host or cells: CHO cells (G418 selection)
T1 sequence (P56718 1-416): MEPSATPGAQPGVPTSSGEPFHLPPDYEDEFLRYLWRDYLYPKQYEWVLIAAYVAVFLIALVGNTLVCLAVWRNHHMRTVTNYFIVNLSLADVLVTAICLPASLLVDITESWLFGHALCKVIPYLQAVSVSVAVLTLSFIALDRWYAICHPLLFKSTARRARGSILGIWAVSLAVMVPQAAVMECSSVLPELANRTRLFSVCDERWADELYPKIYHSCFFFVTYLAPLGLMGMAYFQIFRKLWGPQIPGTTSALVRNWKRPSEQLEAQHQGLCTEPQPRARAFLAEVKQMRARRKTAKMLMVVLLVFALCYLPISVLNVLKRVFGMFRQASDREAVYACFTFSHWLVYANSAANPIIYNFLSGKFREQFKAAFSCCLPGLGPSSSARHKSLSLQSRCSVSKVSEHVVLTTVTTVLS
Procedure: (§1) The utility of the compounds in accordance with the present invention as orexin receptor OX1R and/or OX2R antagonists may be readily determined without undue experimentation by methodology well known in the art, including the “FLIPR Ca^+ Flux Assay” (Okumura et al., Biochem. Biophys. Res. Comm. 280:976-981, 2001). In a typical experiment the OX1 and OX2 receptor antagonistic activity of the compounds of the present invention was determined in accordance with the following experimental method. For intracellular calcium measurements, Chinese hamster ovary (CHO) cells expressing the rat orexin-1 receptor or the human orexin-2 receptor, are grown in Iscove's modified DMEM containing 2 mM L-glutamine, […], 1% hypoxanthine-thymidine supplement, 100 U/ml penicillin, 100 μg/ml streptomycin and 10% heat-inactivated fetal calf serum (FCS). The cells are seeded at 20,000 cells/well into Becton-Dickinson black 384-well clear bottom sterile plates coated with poly-D-lysine. All reagents were from GIBCO-Invitrogen Corp. The seeded plates are incubated overnight at 37° C. and 5% CO2. Ala-6,12 human orexin-A as the agonist is prepared as a 1 mM stock solution in 1% bovine serum albumin (BSA) and diluted in assay buffer (HBSS containing 20 mM HEPES, 0.1% BSA and 2.5 mM probenecid, pH7.4) for use in the assay at a final concentration of 70 pM. Test compounds are prepared as 10 mM stock solution in DMSO, then diluted in 384-well plates, first in DMSO, then assay buffer. On the day of the assay, cells are washed 3 times with 100 μl assay buffer and then incubated for 60 min (37° C., 5% CO2) in 60 μl assay buffer containing 1 μM Fluo-4AM ester, 0.02% pluronic acid, and 1% BSA. The dye loading solution is then aspirated and cells are washed 3 times with 100 μl assay buffer. 30 μl of that same buffer is left in each well. Within the Fluorescent Imaging Plate Reader (FLIPR, Molecular Devices), test compounds are added to the plate in a volume of 25 μl, incubated for 5 min and finally 25 μl of agonist is added. Fluorescence is measured for each well at 1 second intervals for 5 minutes and the height of each fluorescence peak is compared to the height of the fluorescence peak induced by 70 pM Ala-6,12 orexin-A with buffer in place of antagonist. For each antagonist, IC50 value (the concentration of compound needed to inhibit 50% of the agonist response) is determined. Alternatively, compound potency can be assessed by a radioligand binding assay (described in Bergman et. al. Bioorg. Med. Chem. Lett. 2008, 18, 1425-1430) in which the inhibition constant (Ki) is determined in membranes prepared from CHO cells expressing either the OX1 or OX2 receptor. The intrinsic orexin receptor antagonist activity of a compound which may be used in the present invention may be determined by these assays.

[2] = biological target: T2, human orexin-2 receptor (Homo sapiens, UniProt O43614); assay: OX2R FLIPR Ca flux assay (CHO cells); type: cell-based; details: for IC50: CHO cells expressing human orexin-2 receptor, agonist 70 pM Ala-6,12 orexin-A; for Fold Selectivity OX2R vs. OX1R: ratio of OX1R FLIPR to OX2R FLIPR
T2 construct: expressed in transfected cells; host or cells: CHO cells (G418 selection)
T2 sequence (O43614 1-444): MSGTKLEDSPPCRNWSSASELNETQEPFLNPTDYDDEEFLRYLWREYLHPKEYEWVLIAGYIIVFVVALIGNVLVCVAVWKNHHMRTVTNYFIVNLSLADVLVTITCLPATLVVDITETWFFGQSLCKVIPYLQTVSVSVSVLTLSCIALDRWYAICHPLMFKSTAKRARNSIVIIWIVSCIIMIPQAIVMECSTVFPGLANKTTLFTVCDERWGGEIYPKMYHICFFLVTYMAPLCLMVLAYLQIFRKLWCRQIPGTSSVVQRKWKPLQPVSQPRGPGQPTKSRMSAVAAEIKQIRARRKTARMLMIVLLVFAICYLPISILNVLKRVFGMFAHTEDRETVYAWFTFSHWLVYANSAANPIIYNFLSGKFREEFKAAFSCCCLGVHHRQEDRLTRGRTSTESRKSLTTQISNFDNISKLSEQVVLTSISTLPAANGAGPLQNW
Procedure: as §1

IC50 [1] [nM]	IC50 [2] [nM]	Fold Selectivity OX2R vs. OX1R [2] [fold]	SMILES
2900	20	145	Cc1oc(N2CCCN(C(=O)c3ccc(F)cc3-n3nccn3)CC2)nc1C(C)(C)O [Example 18, 2-[2-(4-{[4-fluoro-2-(2H-1,2,3-triazol-2-yl)phenyl]carbonyl}-1,4-diazepan-1-yl)-5-methyl-1,3-oxazol-4-yl]propan-2-ol]
4980	35	142	Cc1cc(C)nc(N2CCCN(C(=O)c3ccc(F)cc3-n3nccn3)CC2)n1 [Example 3, 1-(4,6-dimethylpyrimidin-2-yl)-4-{[4-fluoro-2-(2H-1,2,3-triazol-2-yl)phenyl]carbonyl}-1,4-diazepane]
6290	35	179	Cc1oc(N2CCCN(C(=O)c3ccccc3-n3cccn3)CC2)nc1C(C)(C)O [Example 20, 2-[5-methyl-2-(4-{[2-(1H-pyrazol-1-yl)phenyl]carbonyl}-1,4-diazepan-1-yl)-1,3-oxazol-4-yl]propan-2-ol]

Further lines, the compound ahead of its results:

SMILES	IC50 [1] [nM]	IC50 [2] [nM]	Fold Selectivity OX2R vs. OX1R [2] [fold]
Cc1cc(C)nc(N2CCCN(C(=O)c3ccccc3OC(F)(F)F)CC2)n1 [Example 10, 1-(4,6-dimethylpyrimidin-2-yl)-4-{[2-(trifluoromethoxy)-phenyl]carbonyl}-1,4-diazepane]	> 10000	36	>277
Cc1cc(C)nc(N2CCCN(C(=O)c3ccccc3OC(F)F)CC2)n1 [Example 5, 1-{[2-(difluoromethoxy)phenyl]carbon-yl}-4-(4,6-dimethylpyrimidin-2-yl)-1,4-diazepane]	> 10000	76	>131
Cc1cc(C)nc(N2CCCN(C(=O)c3cccnc3OCC(F)(F)F)CC2)n1 [Example 1, (4-(4,6-dimethylpyrimidin-2-yl)-1,4-diazepan-1-yl)(2-(2,2,2-trifluoroethoxy)pyridin-3-yl)methanone]	6170	18	343
Cc1oc(N2CCCN(C(=O)c3ccccc3OC(F)F)CC2)nc1C(C)(C)O [Example 12, (2-(difluoromethoxy)phenyl)(4-(4-(2-hydroxypropan-2-yl)-5-methyloxazol-2-yl)-1,4-diazepan-1-yl)methanone]	3990	12	332
